Data published in patent US10130633B2, “Compounds” (BAYER PHARMA AKTIENGESELLSCHAFT, priority 2013, dated 2018).
Where “and” joins values, the source holds several entries; their conditions need not be identical. Identical values can stand only once. Counter-ions that a name gives are not always drawn. Like-named read-outs stand apart in the source and are kept apart here.

How the values were obtained:
[1] = Solubility in buffer / aqueous media; assay type: physicochemical; conditions: pH 6.5, aqueous buffer; buffer at pH6.5
Text: Some of the compounds of general formula (I) show low solubility in aqueous media and organic solvents. This can affect the possibility to assess the activity of such compounds with the described assays. […] Therefore, the high IC50 value of the compound might be a result of the low solubility.

[2] = tested on: constitutive active colorectal cancer cell (CRC) Wnt pathway; test: HCT116 TOPFlash cellular reporter assay (Super TopFlash luciferase), constitutive active Wnt pathway; assay type: cell-based; conditions: for IC50: HCT116 TOP reporter cells, 36 hours incubation, luciferase expression
Method: In order to discover and characterize small molecules which inhibit the constitutive active colorectal cancer cell (CRC) Wnt pathway, a cellular reporter assay was employed. […] Stable transfectants were generated by cotransfection with pcDNA3 and selection of stable transfected cells with 1 mg/ml G418.

[3] = tested on: HCT116 FOP control reporter cell line; test: HCT116 FOPFlash control reporter assay (FOP control vector, non-functional TCF elements); assay type: cell-based; conditions: HCT116 FOP control reporter cells, 36 hours incubation, luciferase expression
Text: (§1) In a parallel approach, HCT116 cells were cotransfected with the FOP control vector and pcDNA3. The FOP vector is identical to the TOP construct, but it contains instead of functional TCF elements a randomized, non-functional sequence. For this transfection a stable transfected cell line was generated as well.

wildtype Wnt pathway = test: HEK293 TOP reporter assay, wildtype Wnt pathway stimulated with Wnt-3a; assay type: cell-based, human
Method: (§2) Measurement of luciferase expression was done as described for the constitutive active Wnt assay.
In order to discover and characterize small molecules which inhibit the wildtype Wnt pathway, a cellular reporter assay was employed. […] Stable transfectants were generated by selection with 300 μg/ml Hygromycin.

[4] = tested on: HEK293 FOP control reporter cell line; test: HEK293 FOP control reporter assay; assay type: cell-based, human; conditions: read-out: HEK FOP IC50
Method: as §2
as §1, with “HEK293” for “HCT116”, “well, based on selection with Geneticin (1 mg/ml).” for “well.”

[5] = Homo sapiens, HEK293, 16 h; read-out: HEK TOP OncoFlash IC50
[6] = HEK293 TOP cells, EC50 concentration of recombinant Wnt-3a, 16 hours; read-out: HEK TOP OncoFlash IC50
[7] = HEK293 FOP control cells, EC50 concentration of recombinant Wnt-3a, 16 hours
[8] = Homo sapiens, HEK293, 16 h, read-out: HEK TOP OncoFlash IC50

Row | SMILES | solubility [1] | IC50 value in the HCT116 TOPFlash assay (in words) ([2]; might be a result of the low solubility) | IC50 ([3]; Homo sapiens, HCT-116, 36 h) [nM] | IC50 (wildtype Wnt pathway; [5]) [nM] | IC50 ([4]; Homo sapiens, HEK293, 16 h) [nM] | IC50 ([2]; Homo sapiens, HCT-116, 36 h) [nM] | IC50 [3] [nM] | IC50 (wildtype Wnt pathway; [6]) [nM] | IC50 [4, 7] [nM] | IC50 [2] [nM] | IC50 (wildtype Wnt pathway; [8]) [nM]
1 | COc1ccc(C(=O)Nc2nnc(-c3ccccc3)s2)cc1NC(=O)CN1CCOCC1 [4-methoxy-3-[(morpholin-4-ylacetyl)amino]-N-(5-phenyl-1,3,4-thiadiazol-2-yl)benzamide] | < 0.1 µg/mL and < 0.22 µM | higher than expected |  |  |  |  |  |  |  |  | 
2 | CC(C)(C)c1ccc(NC(=O)c2ccc(-c3ccccc3)s2)cc1NC(=O)CN1CCOCC1 [Example 19, N-{4-tert-butyl-3-[(morpholin-4-ylacetyl)amino]phenyl}-5-phenylthiophene-2-carboxamide] |  |  | 11000 | 990 | ≥ 50000 | 26.2 |  |  |  |  | 
3 | CS(=O)(=O)Cc1ccc(C(=O)Nc2nnc(-c3ccccc3)s2)cc1NC(=O)C1(N2CCOCC2)CC1 [Example 47, 4-[(methylsulfonyl)methyl]-3-({[1-(morpholin-4-yl)cyclopropyl]carbonyl}amino)-N-(5-phenyl-1,3,4-thiadiazol-2-yl)benzamide] |  |  | ≥ 50000 | 90 | ≥ 50000 | 39.8 |  |  |  |  | 
4 | O=C(CN1CCOCC1)Nc1cc(C(=O)Nc2ccc(-c3ccccc3F)nc2)ccc1OC1CC1 [Example 133, 4-(cyclopropyloxy)-N-[6-(2-fluorophenyl)pyridin-3-yl]-3-[(morpholin-4-ylacetyl)amino]benzamide] |  |  | ≥ 50000 | 130 | ≥ 50000 | 54.6 |  |  |  |  | 
5 | COc1ccc(NC(=O)c2ccc(-c3ccccc3)s2)cc1NC(=O)CN1CCOCC1 [Example 25, N-{4-methoxy-3-[(morpholin-4-ylacetyl)amino]phenyl}-5-phenylthiophene-2-carboxamide] |  |  | ≥ 50000 | 90 | 10000 | 326 |  |  |  |  | 
6 | CN1CCN(CC(=O)Nc2cc(C(=O)Nc3nnc(-c4ccccc4)s3)ccc2OC(F)F)CC1 [Example 40, 4-(difluoromethoxy)-3-{[(4-methylpiperazin-1-yl)acetyl]amino}-N-(5-phenyl-1,3,4-thiadiazol-2-yl)benzamide] |  |  | ≥ 50000 | 530 | ≥ 50000 | 52.4 |  |  |  |  | 
7 | O=C(CN1CCOCC1)Nc1cc(NC(=O)c2ccc(-c3ccccc3)s2)ccc1OC(F)(F)F [Example 17, N-{3-[(morpholin-4-ylacetyl)amino]-4-(trifluoromethoxy)phenyl}-5-phenylthiophene-2-carboxamide] |  |  | ≥ 50000 | 33 | ≥ 50000 | 43 |  |  |  |  | 
8 | COc1ccc(C(=O)Nc2ccc(-c3ccccc3F)nc2)cc1NC(=O)C1(N2CCOCC2)CC1 [Example 80, N-[6-(2-fluorophenyl)pyridin-3-yl]-4-methoxy-3-({[1-(morpholin-4-yl)cyclopropyl]carbonyl}amino)benzamide] |  |  | ≥ 50000 | 150 | 10000 | 27 |  |  |  |  | 
9 | O=C(CN1CCOCC1)Nc1cc(NC(=O)c2ccc(-c3ccccc3)nc2)ccc1OC(F)(F)F [Example 33, N-{3-[(morpholin-4-ylacetyl)amino]-4-(trifluoromethoxy)phenyl}-6-phenylnicotinamide] |  |  | ≥ 50000 | 370 | 7400 | 111 |  |  |  |  | 
10 | Nc1ccc(-c2ccc(NC(=O)c3ccc(OC(F)(F)F)c(NC(=O)CN4CCOCC4)c3)cn2)cc1 [Example 126, N-[6-(4-aminophenyl)pyridin-3-yl]-3-[(morpholin-4-ylacetyl)amino]-4-(trifluoromethoxy)benzamide] |  |  | ≥ 50000 | 36 | ≥ 50000 | 52.5 |  |  |  |  | 
11 | COCc1ccc(C(=O)Nc2nnc(-c3ccccc3)s2)cc1NC(=O)C1(N2CCOCC2)CC1 [Example 43, 4-(methoxymethyl)-3-({[1-(morpholin-4-yl)cyclopropyl]carbonyl}amino)-N-(5-phenyl-1,3,4-thiadiazol-2-yl)benzamide] |  |  | ≥ 50000 | 110 | ≥ 50000 | 49.1 |  |  |  |  | 
12 | O=C(Nc1nnc(-c2ccccc2)s1)c1ccc(OC2CC2)c(NC(=O)C2(N3CCOCC3)CC2)c1 [Example 159, 4-(cyclopropyloxy)-3-({[1-(morpholin-4-yl)cyclopropyl]carbonyl}amino)-N-(5-phenyl-1,3,4-thiadiazol-2-yl)benzamide] |  |  | ≥ 50000 | 54 | ≥ 50000 | 41.4 |  |  |  |  | 
13 | C[C@H](C(=O)Nc1cc(C(=O)Nc2ccc(-c3ccc(N(C)C)cc3)nc2)ccc1OC(F)(F)F)N1CCOCC1 (single isomer, unassigned) [Example 115, N-{6-[4-(dimethylamino)phenyl]pyridin-3-yl}-3-{[(2S)-2-(morpholin-4-yl)propanoyl]amino}-4-(trifluoromethoxy)benzamide or N-{6-[4-(dimethylamino)phenyl]pyridin-3-yl}-3-{[(2R)-2-(morpholin-4-yl)propanoyl]amino}-4-(trifluoromethoxy)benzamide] |  |  |  |  |  |  | 2200 | 52 | 4700 | 8.8 | 
14 | CC(C(=O)Nc1cc(C(=O)Nc2nnc(-c3ccccc3)s2)ccc1OC(F)F)N1CCN(C)CC1 (stereo not drawn) [Example 42, 4-(difluoromethoxy)-3-{[2-(4-methylpiperazin-1-yl)propanoyl]amino}-N-(5-phenyl-1,3,4-thiadiazol-2-yl)benzamide trifluoroacetate (1:1)] |  |  | ≥ 50000 |  | ≥ 50000 | 242 |  |  |  |  | 106
15 | COc1ccc(C(=O)Nc2ccc(-c3ccccc3)nc2)cc1NC(=O)C1(N2CCOCC2)CC1 [Example 81, 4-methoxy-3-({[1-(morpholin-4-yl)cyclopropyl]carbonyl}amino)-N-(6-phenylpyridin-3-yl)benzamide] |  |  | ≥ 50000 | 15 | ≥ 50000 | 23.1 |  |  |  |  | 
16 | COc1ccc(NC(=O)c2ccc(-c3ccccc3F)nc2)cc1NC(=O)C1(N2CCOCC2)CC1 [Example 62, 6-(2-fluorophenyl)-N-[4-methoxy-3-({[1-(morpholin-4-yl)cyclopropyl]carbonyl}amino)phenyl]nicotinamide] |  |  | ≥ 50000 | 180 | ≥ 50000 | 67.3 |  |  |  |  | 
17 | COCc1ccc(C(=O)Nc2nnc(-c3ccccc3)s2)cc1NC(=O)C1(N2CCN(C)CC2)CC1 [Example 45, 4-(methoxymethyl)-3-({[1-(4-methylpiperazin-1-yl)cyclopropyl]carbonyl}amino)-N-(5-phenyl-1,3,4-thiadiazol-2-yl)benzamide hydrochloride (1:1)] |  |  | 26500 |  | ≥ 50000 | 198 |  |  |  |  | 190
18 | O=C(CN1CCOCC1)Nc1cc(C(=O)Nc2ccc(-c3ccccc3)nc2)ccc1OC(F)(F)F [Example 15, 3-[(morpholin-4-ylacetyl)amino]-N-(6-phenylpyridin-3-yl)-4-(trifluoromethoxy)benzamide] |  |  | ≥ 50000 | 48 | ≥ 50000 | 137 |  |  |  |  | 
19 | NC(=O)c1ccc(C(=O)Nc2nnc(-c3ccccc3)s2)cc1NC(=O)C1(N2CCOCC2)CC1 [Example 56, 2-({[1-(morpholin-4-yl)cyclopropyl]carbonyl}amino)-N-4-(5-phenyl-1,3,4-thiadiazol-2-yl)terephthalamide] |  |  | ≥ 50000 | 190 | ≥ 50000 | 104 |  |  |  |  | 
20 | CN1CCN(CC(=O)Nc2cc(C(=O)Nc3ccc(-c4ccccc4)cn3)ccc2OC(F)(F)F)CC1 [Example 132, 3-{[(4-methylpiperazin-1-yl)acetyl]amino}-N-(5-phenylpyridin-2-yl)-4-(trifluoromethoxy)benzamide formiate] |  |  |  |  |  |  | 20000 | 70 | 11000 | 35.5 | 
